Reference: patent publication US9670487B2, “Cationic lipids for oligonucleotide delivery” (SIRNA THERAPEUTICS, INC., priority 2010, dated 2017)

Legend:
[1] = system: mRNA transcript for the firefly (Photinus pyralis) luciferase gene; test: In vivo efficacy in luciferase mouse model (LNP/RDV with Luc siRNA); settings: for inhibition at 0.3 mg/kg: Mus musculus, LNPs prepared from the compound with Luc siRNA, 0.3 mg Kg^-1, tail vein, imaged 48 hours post dose, relative to pre-dose luminescence, read-out: Average % Inhibition of Bioluminescence
Protocol: LNPs utilizing the compounds of the instant invention, in the nominal compositions described immediately above, were evaluated for in vivo efficacy and induction of inflammatory cytokines in a luciferase mouse model. The siRNA targets the mRNA transcript for the firefly (Photinus pyralis) luciferase gene (Accession # M15077). […] The in vivo luciferase model employs a transgenic mouse in which the firefly luciferase coding sequence is present in all cells. ROSA26-LoxP-Stop-LoxP-Luc (LSL-Luc) transgenic mice licensed from the Dana Farber Cancer Institute are induced to express the Luciferase gene by first removing the LSL sequence with a recombinant Ad-Cre virus (Vector Biolabs). Due to the organo-tropic nature of the virus, expression is limited to the liver when delivered via tail vein injection. Luciferase expression levels in liver are quantitated by measuring light output, using an IVIS imager (Xenogen) following administration of the luciferin substrate (Caliper Life Sciences). Pre-dose luminescence levels are measured prior to administration of the RDVs. Luciferin in PBS (15 mg/mL) is intraperitoneally (IP) injected in a volume of 150 uL. After a four minute incubation period mice are anesthetized with isoflurane and placed in the IVIS imager. The RDVs (containing siRNA) in PBS vehicle were tail vein injected n a volume of 0.2 mL. Final dose levels ranged from 0.3 to 3 mg/kg siRNA. PBS vehicle alone was dosed as a control. Three hours post dose, mice were bled retro-orbitally to obtain plasma for cytokine analysis. Mice were imaged 48 hours post dose using the method described above. Changes in luciferin light output directly correlate with luciferase mRNA levels and represent an indirect measure of luciferase siRNA activity. In vivo efficacy results are expressed as % inhibition of luminescence relative to pre-dose luminescence levels. Plasma cytokine levels were determined using the SearchLight multiplexed cytokine chemiluminescent array (Pierce/Thermo). Systemic administration of the luciferase siRNA RDVs decreased luciferase expression in a dose dependant manner. […]

[2] = Rat in vivo tolerability: serum ALT and AST after LNP dosing; settings: Sprague-Dawley female rats; RDV with ApoB siRNA; tail vein; 24 hours after dosing; FIG. 4
Protocol: Six hours post dose, food is removed from the cages. Animal necropsy is performed 24 hours after LNP dosing. Rats are anesthetized under isoflurane for 5 minutes, then maintained under anesthesia by placing them in nose cones continuing the delivery of isoflurane until ex-sanguination is completed. Blood is collected from the vena cava using a 23 gauge butterfly venipuncture set and aliquoted to serum separator vacutainers for serum chemistry analysis. Punches of the excised caudate liver lobe are taken and placed in RNALater (Ambion) for mRNA analysis. Preserved liver tissue was homogenized and total RNA isolated using a Qiagen bead mill and the Qiagen miRNA-Easy RNA isolation kit following the manufacturer's instructions. Liver ApoB mRNA levels were determined by quantitative RT-PCR. Message was amplified from purified RNA utilizing a rat ApoB commercial probe set (Applied Biosystems Cat # RN01499054_ml). The PCR reaction was performed on an ABI 7500 instrument with a 96-well Fast Block. The ApoB mRNA level is normalized to the housekeeping PPIB (NM 011149) mRNA. PPIB mRNA levels were determined by RT-PCR using a commercial probe set (Applied Biosystems Cat. No. Mm00478295_ml). Results are expressed as a ratio of ApoB mRNA/PPIB mRNA. All mRNA data is expressed relative to the PBS control dose. […]

[3] = system: mRNA transcript for the ApoB gene; test: Rhesus monkey in vivo efficacy: serum LDL-C as surrogate marker of ApoB mRNA reduction; parameters: species or system Macaca mulatta (rhesus) monkeys; settings: RDVs containing the compound and ApoB siRNA; 1 mg/kilogram siRNA intravenous; 2-12 days post administration; FIG. 6
Protocol: LNPs utilizing compound 34 in the nominal compositions described above, were evaluated for in vivo efficacy in male or female Macaca mulatta (rhesus) monkeys. The siRNA targets the mRNA transcript for the ApoB gene (Accession # XM 001097404). […] The RDVs (containing siRNA) in PBS vehicle were administered by intravenous injection in the saphenous vein at an injection rate of 20 mL/minute to a dose level of 1 mg/kilogram siRNA. The injection volumes were from 1.9 to 2.1 mL/kilogram and monkeys ranged in weight from 2.5 to 4.5 kilograms. The RDV or PBS control were administered to three monkeys. At multiple days post dose, 1 mL blood samples were drawn from the femoral artery for serum chemistry analysis. Monkeys were fasted overnight prior to blood draws. As a measure of efficacy, LDL-C was monitored as a downstream surrogate marker of ApoB mRNA reduction. At 2-12 days post systemic administration of RDVs containing compound 34, serum levels of LDL-C were reduced to less than 30% of pre-dose levels (FIG. 6).

## CCCCC/C=C\C/C=C\CCCCCCCCOC(CN(C)C)OCCCCCCCC/C=C\C/C=C\CCCCC [Compound 2, N,N-dimethyl-2,2-bis[(9Z,12Z)-octadeca-9,12-dien-1-yloxy]ethanamine]
[1]
  inhibition at 0.3 mg/kg: 64%
[1]; mice dosed with RDVs containing the compound and Luc siRNA, Table 1
  Efficacy compared with RDV containing octyl-CLinDMA cationic lipid, Compound 4: Greater efficacy

## CCCCC/C=C\C/C=C\CCCCCCCCOCC(CN(C)C)OCCCCCCCCO[C@H]1CC[C@@]2(C)C(=CC[C@H]3[C@@H]4CC[C@H]([C@H](C)CCCC(C)C)[C@@]4(C)CC[C@@H]32)C1 (some centres unmarked) [Compound 4, S-Octyl CLinDMA, reference compound]
[1]
  inhibition at 0.3 mg/kg: 55%

## CCCCC/C=C\C/C=C\CCCCCCCCOC(CN(C)C)OCCCCCCCC (centres unmarked) [Compound 31, N,N-dimethyl-2-[(9Z,12Z)-octadeca-9,12-dien-1-yloxy]-2-(octyloxy)ethanamine]
[2]
  Tolerability (serum ALT and AST) compared with RDV containing DLinKC2DMA cationic lipid 64: better tolerability

## CCC/C=C\CCCCCCCOC(CN1CCCC1)OCCCCCCCC/C=C\C/C=C\CCCCC (centres unmarked) [Compound 34, 1-{2-[(8Z)-dodec-8-en-1-yloxy]-2-[(9Z,12Z)-octadeca-9,12-dien-1-yloxy]ethyl}pyrrolidine]
[3]
  Serum levels of LDL-C: less than 30 % of pre-dose levels
